Experimental data reported in patent publication US9546377B2, “Methods for the identification of genes involved in abiotic stress tolerance in plants” (priority 2011, dated 2017).

What was measured:
Arabidopsis [1] = experiment: Kill curves for individual osmotic stress agents; format: in vivo; conditions: kill curve experiments, each stress agent individually in the media
Excerpt: The standardization of growth conditions and generation of kill curves for various osmotic stress agents individually was done before the development of quad stress assay conditions. […] As there were four stress agents being used together, a quarter of each together in a solution would denote 100% stress or an osmotic pressure of 1.23 MPa. Therefore the following concentrations of each component were used in “100% quad media”.
Assay Conditions: Seeds were surface sterilized and stratified for 48 hrs. About 100 seeds were inoculated in one plate and cultured in a growth chamber programmed for 16 h of light at 22° C. temperature and 50% relative humidity. Germination was scored as the emergence of radicle. Assay Plan: A 6-day assay and an extended 10-day assay were done to test the seeds from the 48 transgenic Arabidopsis lines for osmotic stress tolerance. • Day 0—Surface sterilized seeds of different drought leads and stratify. • Day 2—Inoculated onto quad media. • Day 4—Counted for germination (48 hrs). • Day 5—Counted for germination (72 hrs)/Take pictures or Scan plates from 48 hrs to 96 hrs. • Day 6—Counted for germination (96 hrs). • For the extended 10-day assay, germination was scored from 48 hrs to 96 hrs. On day 7, 8, 9 and 10, the emerged seedlings were checked for greenness and four leaf stage. Preparation of Media • Germination medium (GM or 0% quad media) for 1 liter: […]

Arabidopsis [2] = experiment: Paraquat tolerance assay, dose effect of paraquat on growth; format: in vivo
Procedure: In light-exposed plants, paraquat accepts electrons from photosystem I and transfers them to molecular oxygen. In this manner, destructive reactive oxygen species are produced. A range of paraquat concentrations were tested in Arabidopsis. […] Compared to wild-type plants, mutant plants have larger size and less-bleached leaves under these conditions. A quantitative assay based on leaf area and color (similar to low N plate analysis) can be easily integrated into this screen.
The dose effect of paraquat on Arabidopsis growth was determined. […] Therefore this concentration was used for paraquat resistance assay. […] Tsu can serve as a positive control for this assay.
Seeds were surface sterilized and stratified for 96 hrs. 18 seeds for each tested line and Col-0 were inoculated in one plate, then cultured in a growth chamber programmed for 16 h of light at 22° C. temperature, 150 μE light intensity and 50% relative humidity. Growth phenotype was scored based on leaf size and color at 7-day-after inoculation.
Seeds were inoculated on a square paraquat plate. 18 seeds of test lines and 18 seeds of Col-0 were evenly put on the plate side by side. Plates were then cultured in the chambers set at 16 h of light at 22° C. temperature, 150 μE light intensity and 50% relative humidity.

Row | Compound | lethal concentration (Arabidopsis [1]) [mM] | effect on Col-0 plants (Arabidopsis [2]; 0.03 μM paraquat) | concentration that greatly inhibited Arabidopsis growth (Arabidopsis [2]; 7-day growth on plates) [µM] | concentration at which the effect on growth can be detected (Arabidopsis [2]; in vivo) [µM] | concentration giving dose-dependent growth inhibition and leaf bleach (Arabidopsis [2]; range of paraquat concentrations tested in Arabidopsis) [µM]
1 | [Cl-].[Na+] [NaCl, sodium chloride] | 150 | – | – | – | –
2 | OC[C@@H](O)[C@@H](O)[C@H](O)[C@H](O)CO [mannitol] | 500 | – | – | – | –
3 | C[n+]1ccc(-c2cc[n+](C)cc2)cc1 [paraquat] | – | plants died one-week-after germination | 0.03 | 0.01 | 0.01 to 0.1
4 | OC[C@@H](O)[C@@H](O)[C@H](O)[C@@H](O)CO [sorbitol] | 500 | – | – | – | –
